According to the NIST ThermoML archive (doi:10.1021/je050386z):
Numbers after ± are expanded uncertainties.

Settings: 101.33 kPa, Liquid
[1] = 283.15 K, Vibrating tube method
[2] = 298.15 K, Vibrating tube method
[3] = 323.15 K, Vibrating tube method
[4] = 348.15 K, Vibrating tube method

Row | Structure (SMILES) | mass density [1] [kg/m3] | mass density [2] [kg/m3] | mass density [3] [kg/m3] | mass density [4] [kg/m3] | further results
1 | CCCCCCCCCCCCn1cc[n+](C)c1.O=S(=O)([O-])C(F)(F)C(F)F |  |  |  |  | mass density (301.35 K, Pycnometric method): 1136 ± 4 kg/m3
2 | CCCCn1cc[n+](C)c1.N#C[S-] [1-butyl-3-methylimidazolium thiocyanate] |  |  |  |  | mass density (298.65 K, Pycnometric method): 1067 ± 3 kg/m3
3 | CCCCn1cc[n+](C)c1.O=S(=O)([O-])C(F)(F)C(F)(F)OC(F)C(F)(F)F (centres undefined) | 1464 ± 4 | 1449 ± 4 | 1425 ± 4 | 1401 ± 4 | 
4 | CCn1cc[n+](C)c1.O=S(=O)([N-]S(=O)(=O)C(F)(F)C(F)(F)F)C(F)(F)C(F)(F)F | 1608 ± 3 | 1590 ± 3 | 1562 ± 3 | 1534 ± 3 | 
5 | CC(=O)[O-].CCCCn1cc[n+](C)c1 [1-butyl-3-methylimidazolium acetate] |  |  |  |  | mass density (298.15 K, Pycnometric method): 1053 ± 3 kg/m3
6 | CCCCn1cc[n+](C)c1.COS(=O)(=O)[O-] [1-butyl-3-methylimidazolium methyl sulfate] |  |  |  |  | mass density (298.15 K, Pycnometric method): 1214 ± 3 kg/m3
7 | CCCCn1cc[n+](C)c1.O=S(=O)([O-])C(F)(F)C(F)OC(F)(F)F (centres undefined) | 1409 ± 4 | 1393 ± 4 | 1369 ± 4 | 1345 ± 4 | 
8 | CCCn1cc[n+](C)c1C.O=S(=O)([C-](S(=O)(=O)C(F)(F)F)S(=O)(=O)C(F)(F)F)C(F)(F)F | 1612 ± 3 | 1597 ± 3 | 1582 ± 3 | 1567 ± 3 | 
9 | CCC[n+]1cccc(C)c1.O=S(=O)([N-]S(=O)(=O)C(F)(F)F)C(F)(F)F | 1460 ± 3 | 1444 ± 3 | 1420 ± 3 | 1397 ± 3 | 
10 | CCCC[n+]1cccc(C)c1.O=S(=O)([N-]S(=O)(=O)C(F)(F)F)C(F)(F)F | 1428 ± 3 | 1412 ± 3 | 1389 ± 3 | 1367 ± 3 | 
11 | CCCCn1cc[n+](C)c1.O=S(=O)([O-])C(F)(F)C(F)OC(F)(F)C(F)(F)F (centres undefined) | 1439 ± 4 | 1423 ± 4 | 1397 ± 4 | 1372 ± 4 | 
12 | CCCC[n+]1ccn(C)c1.O=S(=O)([O-])C(F)(F)C(F)C(F)(F)F (centres undefined) | 1422 ± 4 | 1409 ± 4 | 1385 ± 4 | 1364 ± 4 | 
13 | CCn1cc[n+](C)c1.O=S(=O)([N-]S(=O)(=O)C(F)(F)F)C(F)(F)F | 1534 ± 5 | 1517 ± 5 | 1492 ± 4 | 1467 ± 4 | 
14 | CCn1cc[n+](C)c1.O=S(=O)([O-])C(F)(F)C(F)F |  |  |  |  | mass density (301.45 K, Pycnometric method): 1502 ± 5 kg/m3
15 | CCC[n+]1ccn(C)c1C.O=S(=O)([N-]S(=O)(=O)C(F)(F)F)C(F)(F)F |  |  |  |  | mass density (299.15 K, Pycnometric method): 1481 ± 3 kg/m3
16 | CCCCCCCn1cc[n+](C)c1.O=S(=O)([O-])C(F)(F)C(F)F |  |  |  |  | mass density (301.15 K, Pycnometric method): 1274 ± 4 kg/m3
17 | CCCCn1cc[n+](C)c1.O=S(=O)([O-])C(F)(F)C(F)F |  |  |  |  | mass density (301.45 K, Pycnometric method): 1324 ± 4 kg/m3
